Test results taken from US9981964B2 (Agency for Science, Technology and Research, priority 2013, dated 2018).
Entries after “also recorded” stand apart in the source; their conditions may differ. Read-outs that look alike come from different tables or passages of the source.

What was measured:
[1] = test system: HEK293-STF3A cells; assay: STF3A assay (STF luciferase reporter in Wnt3A-expressing HEK293 cells); type: cell-based; details: Homo sapiens, 24 h, 1 day of treatment
How it was run: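 HEK293 cells carrying the STF reporter and expressing Wnt3A, seeded 2×10^4 per well overnight, then treated 1 day with compound at final 50 μM to 1.5 nM. Luciferase activity read by luminescence after Steady-Glo reagent, 10 min at room temperature.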

[2] = test system: AsPC-1 cells; assay: Soft agar colony formation assay, AsPC-1; type: cell-based; details: for IC50: Homo sapiens
Method: (§1) AsPC-1 cells were maintained in RPMI164 supplemented with 10% FBS, 2 mM L-glutamine and P/S (100 units/ml penicillin and 100 μg/ml streptomycin). HPAF-II cells were maintained in MEM (Eagles') supplemented with 10% FBS, 2 mM L-glutamine and P/S (100 units/ml penicillin and 100 μg/ml streptomycin). CFPAC-1 cells were maintained in Iscove MEM supplemented with 10% FBS, 2 mM L-glutamine and P/S (100 units/ml penicillin and 100 μg/ml streptomycin).
(§2) 600 μl of 0.6% agar was added to 24-well plate to form the base layer. Then a middle layer of 0.36% agar (containing 5000 cells and serially diluted compound) was added on to the base layer. Finally 500 μl of fresh growth medium was added to the top of the middle layer. The plates were incubated at 37° C. with 5% carbon dioxide in a humidified incubator for 2 weeks. Formation of colonies was observed using a light microscope. When the colony size was larger than 500 μm, 70 μl MTT (5 mg/ml) was added to each well and the plates were incubated at 37° C. for at least 2 hours. Colonies were counted with GelCount® instrument. The colony counts were plotted against compound concentrations using the GraphPad Prism software. The software was also used to perform non-linear curve fitting and calculation of compound concentration that inhibited 50% colony formation.

[3] = test system: HPAF-II cells; assay: Soft agar colony formation assay, HPAF-II; type: cell-based; details: for IC50: Homo sapiens
Method: as §1, §2

[4] = test system: CFPAC-1 cells; assay: Soft agar colony formation assay, CFPAC-1; type: cell-based; details: for IC50: Homo sapiens
Method: as §1, §2

[5] = test system: MMTV-Wnt1 tumor; type: in vivo, BALBc mice; details: for % T/C / % TGI / NTRD / T/C / TRD: Day 14
Method: 8-10 weeks old Female BALBc mice were anesthetised with 150 mg/kg Ketamine +75 mg/kg Xylazine. Under aseptic conditions, skin near the 4th mammary fat pad was incised, Mammary fat pad was tweaked with forceps and tumor fragment ˜2 mm^3 was implanted. The incision was closed using a tissue adhesive. Animals were randomised into groups of eight and treated daily with the test compounds for 14 days. Tumors were measured in two dimensions using calipers, and volume was calculated using the formula: Tumor Volume (mm^3)=[…]. Maximum tumor volume limit was 2000 mm^3.

[6] = test system: mammalian PORCN; assay: PORCN-null HT1080 cells transfected with mammalian PORCN, WNT3A and STF reporter, luciferase; type: cell-based; details: STF luciferase, FIG. 1
Method: PORCN-null HT1080 cells were transfected with mammalian or Xenopus PORCN expression plasmids, along with WNT3A, STF reporter and mCherry as transfection control. 6 hours after transfection, cells were treated with the compounds or DMSO as indicated, and the following day assayed for luciferase. Xenopus PORCN was resistant to the inhibitory effects of compounds.

[7] = test system: Palmitoylation of Wnt3a; assay: Wnt3A palmitoylation assay (HeLa cells over-expressing V5-Wnt3a, alkyne palmitate, click chemistry); type: cell-based; details: 100 nM compound
Method: The assay used to determine the inhibition of the palmitoylation of Wnts by compound was described by Yap et al, (Yap M C, Kostiuk M A, Martin D D, Perinpanayagam M A, Hak P G, Siddam A, Majjigapu J R, Rajaiah G, Keller B O, Prescher J A, Wu P, Bertozzi C R, Falck J R, Berthiaume L G. 2010. Rapid and selective detection of fatty acylated proteins using omega-alkynyl-fatty acids and click chemistry. J Lipid Res. 51(6):1566-1580) with some modification. 3×10^6 HeLa cells were seeded in 10 cm culture dish and incubated at 37° C. overnight. […] After six hours, the cells were washed with PBS and treated with 100 μM alkyne palmitate in medium with 5% BSA. 100 nM compound or DMSO was added and the cells were incubated overnight at 37° C. The cells were lyzed and 600 μg cell lysate was collected and incubated with anti-V5 antibody (Invitrogen) followed by the pull down of V5-Wnt3a with the addition of Protein A/G agarose beads (Thermo scientific). The pulled down lysates containing V5-Wnt3a was click-reacted with biotin-azide (Invitrogen). The biotin-labelled protein lysate was then separated on SDS-PAGE and transferred to a nitrocellulose membrane. The membrane was incubated with primary anti-V5 antibody, followed by secondary anti-mouse Dylight 680 (Thermo scientific) to detect V5-Wnt3a. […]

**Q.** `O=C(CN1CCCC2=C1C(=O)N(C1CC1)C2=O)Nc1ccc(-c2cccnc2)nn1` [Compound 43, 2-(6-cyclopropyl-5,7-dioxo-2,3,4,5,6,7-hexahydro-1H-pyrrolo[3,4-b]pyridin-1-yl)-N-(6-(pyridin-3-yl)pyridazin-3-yl)acetamide] was tested. Which IC50 [1] did it give?
**A.** < 100 nM

**Q.** And the Maximum inhibition ([2]; AsPC-1, colony formation)?
**A.** 79%

**Q.** And the IC50 ([2]; ASPC1, 336 h, AsPC-1, 50% colony growth inhibition, 2 weeks, read-out: Test 1 IC50)?
**A.** 4 nM

**Q.** And the IC50 ([2]; ASPC1, 336 h, AsPC-1, 50% colony growth inhibition, 2 weeks, read-out: Test 2 IC50)?
**A.** 5 nM

**Q.** And the IC50 ([2]; ASPC1, AsPC-1, mean of two independent experiments, read-out: Mean IC50)?
**A.** 5 nM

**Q.** What about the IC50 ([3]; 336 h, 50% colony growth inhibition, 2 weeks, read-out: Test 1 IC50) of the same compound?
**A.** 4 nM

**Q.** What about the IC50 ([3]; 336 h, 50% colony growth inhibition, 2 weeks, read-out: Test 2 IC50) of the same compound?
**A.** 2 nM

**Q.** What about the IC50 ([3]; mean of two independent experiments, read-out: Mean IC50) of the same compound?
**A.** 3 nM

**Q.** What about the Maximum inhibition ([3]; colony formation) of the same compound?
**A.** 100%

**Q.** What about the Maximum inhibition ([4]; CFPAC-1, colony formation) of the same compound?
**A.** 67%

**Q.** And the IC50 ([4]; 336 h, CFPAC-1, 50% colony growth inhibition, 2 weeks, read-out: Test 1 IC50)?
**A.** 300 nM

**Q.** What about the IC50 ([4]; 336 h, CFPAC-1, 50% colony growth inhibition, 2 weeks, read-out: Test 2 IC50) of the same compound?
**A.** 140 nM

**Q.** What about the IC50 ([4]; CFPAC-1, mean of two independent experiments, read-out: Mean IC50) of the same compound?
**A.** 220 nM

**Q.** And the “% T/C” value ([5]; 1 mg/Kg daily)?
**A.** 77.5%

**Q.** What about the “% TGI” value ([5]; 1 mg/Kg daily) of the same compound?
**A.** 24%

**Q.** What about the NTRD ([5]; 1 mg/Kg daily) of the same compound?
**A.** 0/8

**Q.** What about the T/C ([5]; 1 mg/Kg daily) of the same compound?
**A.** 0.775

**Q.** What about the TRD ([5]; 1 mg/Kg daily) of the same compound?
**A.** 0/8

**Q.** And the “% T/C” value ([5]; 3 mg/Kg daily)?
**A.** 33.7%

**Q.** What about the “% TGI” value ([5]; 3 mg/Kg daily) of the same compound?
**A.** 72%

**Q.** What about the NTRD ([5]; 3 mg/Kg daily) of the same compound?
**A.** 0/8

**Q.** What about the T/C ([5]; 3 mg/Kg daily) of the same compound?
**A.** 0.337

**Q.** And the TRD ([5]; 3 mg/Kg daily)?
**A.** 0/8

**Q.** And the “% T/C” value ([5]; 10 mg/Kg daily)?
**A.** 18.5%

**Q.** And the “% TGI” value ([5]; 10 mg/Kg daily)?
**A.** 97%

**Q.** What about the NTRD ([5]; 10 mg/Kg daily) of the same compound?
**A.** 0/8

**Q.** And the T/C ([5]; 10 mg/Kg daily)?
**A.** 0.185

**Q.** And the TRD ([5]; 10 mg/Kg daily)?
**A.** 0/8

**Q.** What about the “tumor growth in treated mice” value ([5]; daily treatment for 14 days, FIG. 2 and FIG. 3) of the same compound?
**A.** decreased tumor growth in all the treated mice

**Q.** And the “inhibition of the activity of mammalian porcupine” value [6]?
**A.** inhibit the activity of mammalian porcupine; also recorded: inhibition of the activity of mammalian porcupine

**Q.** What about the “inhibition of palmitoylation of Wnt3a” value [7] of the same compound?
**A.** inhibited; also recorded: inhibition of Palmitoylation of Wnt3a
